{"source": "paper PMC6035379", "about": "(Journal of Ginseng Research, 2017)", "key": {"drug-resistant KBV cells": {"system": "drug-resistant KBV cells", "conditions": "cited from earlier work"}, "CYP1A1": {"system": "CYP1A1", "conditions": "HepG2 cells; cited from earlier work"}, "[1]": {"assay_type": "in vivo", "conditions": "rats; fexofenadine 10 mg/kg oral; control group without KRG"}, "P-gp": {"system": "P-gp", "conditions": "cited from earlier work"}, "CYP2D6": {"system": "CYP2D6", "conditions": "cited from earlier work"}, "CYP2C19": {"system": "CYP2C19", "conditions": "cited from earlier work"}, "CYP2C9": {"system": "CYP2C9", "conditions": "cited from earlier work"}, "CYP3A4": {"system": "CYP3A4", "conditions": "cited from earlier work"}}, "note": "Structures can show the parent of a compound that is named as a salt."}
{"smiles": "CC(C)=CCC[C@](C)(O)[C@H]1CC[C@]2(C)[C@@H]1[C@H](O)C[C@@H]1[C@@]3(C)CC[C@H](O[C@@H]4O[C@H](CO)[C@@H](O)[C@H](O)[C@H]4O[C@@H]4O[C@H](CO)[C@@H](O)[C@H](O)[C@H]4O)C(C)(C)[C@@H]3CC[C@]12C", "note": "[ginsenoside Rg3]", "values": [{"measurement": "(3H) vinblastine efflux", "setting": "drug-resistant KBV cells", "value": "inhibited"}]}
{"smiles": "CC(C)=CCC[C@](C)(O[C@@H]1O[C@H](CO)[C@@H](O)[C@H](O)[C@H]1O)[C@H]1CC[C@]2(C)[C@@H]1[C@H](O)C[C@@H]1[C@@]3(C)CC[C@H](O)C(C)(C)[C@@H]3[C@@H](O[C@@H]3O[C@H](CO)[C@@H](O)[C@H](O)[C@H]3O)C[C@]12C", "note": "[ginsenoside Rg1]", "values": [{"measurement": "mRNA level of CYP1A1", "setting": "CYP1A1", "value": "significantly increased"}]}
{"smiles": "CC(C)=CCC[C@](C)(O[C@@H]1O[C@H](CO[C@@H]2OC[C@H](O)[C@H](O)[C@H]2O)[C@@H](O)[C@H](O)[C@H]1O)[C@H]1CC[C@]2(C)[C@@H]1[C@H](O)C[C@@H]1[C@@]3(C)CC[C@H](O[C@@H]4O[C@H](CO)[C@@H](O)[C@H](O)[C@H]4O[C@@H]4O[C@H](CO)[C@@H](O)[C@H](O)[C@H]4O)C(C)(C)[C@@H]3CC[C@]12C", "note": "[ginsenoside Rb2]", "values": [{"measurement": "mRNA level of CYP1A1", "setting": "CYP1A1", "value": "significantly increased"}]}
{"smiles": "CC(C)(C(=O)O)c1ccc(C(O)CCCN2CCC(C(O)(c3ccccc3)c3ccccc3)CC2)cc1", "note": "(stereo not drawn) [fexofenadine, Fexofenadine hydrochloride]", "values": [{"measurement": "mean maximum concentration of fexofenadine", "setting": "[1]", "value": 32, "unit": "ng/mL"}]}
{"smiles": "Cc1ncc2n1-c1ccc(Cl)cc1C(c1ccccc1F)=NC2", "note": "[midazolam]", "values": [{"measurement": "transport by P-gp", "setting": "P-gp", "value": "not transported"}]}
{"smiles": "CC(C)=CCC[C@](C)(O[C@@H]1O[C@H](CO)[C@@H](O)[C@H](O)[C@H]1O)[C@H]1CC[C@]2(C)[C@@H]1[C@H](O)C[C@@H]1[C@@]3(C)CC[C@H](O[C@@H]4O[C@H](CO)[C@@H](O)[C@H](O)[C@H]4O[C@@H]4O[C@H](CO)[C@@H](O)[C@H](O)[C@H]4O)C(C)(C)[C@@H]3CC[C@]12C", "note": "[ginsenoside Rd]", "values": [{"measurement": "inhibition of CYP2D6", "setting": "CYP2D6", "value": "weak inhibition"}, {"measurement": "inhibition of CYP2C19", "setting": "CYP2C19", "value": "weak inhibition"}, {"measurement": "inhibition of CYP2C9", "setting": "CYP2C9", "value": "weak inhibition"}, {"measurement": "inhibition of CYP3A4", "setting": "CYP3A4", "value": "weak inhibition"}]}
